Data set [1] addresses T1, Toll-like receptor 7 (Homo sapiens, UniProt Q9NYK1).
T1 sequence (Q9NYK1 whole entry): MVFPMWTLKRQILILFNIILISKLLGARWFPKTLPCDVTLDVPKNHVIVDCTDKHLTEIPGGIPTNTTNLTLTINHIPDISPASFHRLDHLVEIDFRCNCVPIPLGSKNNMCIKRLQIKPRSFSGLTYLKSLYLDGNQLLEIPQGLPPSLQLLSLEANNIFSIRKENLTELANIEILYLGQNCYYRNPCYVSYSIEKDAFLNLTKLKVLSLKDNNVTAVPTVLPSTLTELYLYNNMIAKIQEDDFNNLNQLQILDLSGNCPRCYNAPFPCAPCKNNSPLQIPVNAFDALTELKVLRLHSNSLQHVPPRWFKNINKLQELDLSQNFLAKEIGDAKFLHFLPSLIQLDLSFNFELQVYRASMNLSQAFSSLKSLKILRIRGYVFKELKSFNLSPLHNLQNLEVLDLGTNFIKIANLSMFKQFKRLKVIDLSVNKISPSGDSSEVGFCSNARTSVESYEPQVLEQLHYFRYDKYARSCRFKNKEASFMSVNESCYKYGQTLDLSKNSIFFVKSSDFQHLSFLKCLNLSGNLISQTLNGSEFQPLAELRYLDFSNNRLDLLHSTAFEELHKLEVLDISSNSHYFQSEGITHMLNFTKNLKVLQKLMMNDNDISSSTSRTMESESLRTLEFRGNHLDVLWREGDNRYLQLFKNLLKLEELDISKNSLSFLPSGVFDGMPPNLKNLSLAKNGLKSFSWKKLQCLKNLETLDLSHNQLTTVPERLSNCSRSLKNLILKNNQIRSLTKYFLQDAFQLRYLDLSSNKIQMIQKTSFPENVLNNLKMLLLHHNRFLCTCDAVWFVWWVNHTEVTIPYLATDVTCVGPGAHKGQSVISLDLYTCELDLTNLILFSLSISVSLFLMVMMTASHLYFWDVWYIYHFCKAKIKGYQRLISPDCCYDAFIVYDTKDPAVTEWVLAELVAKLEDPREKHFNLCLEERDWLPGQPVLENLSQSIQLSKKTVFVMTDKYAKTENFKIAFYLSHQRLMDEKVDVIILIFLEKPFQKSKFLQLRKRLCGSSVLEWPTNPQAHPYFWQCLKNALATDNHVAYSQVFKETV
Put plainly: Agonist activity at TLR7 in human U2OS cells. Type of data set: cell-based.

Data set [2] deals with PBMC. Description: Immunomodulatory activity in human PBMC assessed as reduction in house dust mite induced IL-13 level after 6 days. The note with it: dose 0.01-10000 nM, time 6.0 day. Type of data set: functional, cell-based.
Data set [3] concerns the target T2, Toll-like receptor 7 (Macaca fascicularis) (UniProt B3Y652).
T2 sequence (whole entry): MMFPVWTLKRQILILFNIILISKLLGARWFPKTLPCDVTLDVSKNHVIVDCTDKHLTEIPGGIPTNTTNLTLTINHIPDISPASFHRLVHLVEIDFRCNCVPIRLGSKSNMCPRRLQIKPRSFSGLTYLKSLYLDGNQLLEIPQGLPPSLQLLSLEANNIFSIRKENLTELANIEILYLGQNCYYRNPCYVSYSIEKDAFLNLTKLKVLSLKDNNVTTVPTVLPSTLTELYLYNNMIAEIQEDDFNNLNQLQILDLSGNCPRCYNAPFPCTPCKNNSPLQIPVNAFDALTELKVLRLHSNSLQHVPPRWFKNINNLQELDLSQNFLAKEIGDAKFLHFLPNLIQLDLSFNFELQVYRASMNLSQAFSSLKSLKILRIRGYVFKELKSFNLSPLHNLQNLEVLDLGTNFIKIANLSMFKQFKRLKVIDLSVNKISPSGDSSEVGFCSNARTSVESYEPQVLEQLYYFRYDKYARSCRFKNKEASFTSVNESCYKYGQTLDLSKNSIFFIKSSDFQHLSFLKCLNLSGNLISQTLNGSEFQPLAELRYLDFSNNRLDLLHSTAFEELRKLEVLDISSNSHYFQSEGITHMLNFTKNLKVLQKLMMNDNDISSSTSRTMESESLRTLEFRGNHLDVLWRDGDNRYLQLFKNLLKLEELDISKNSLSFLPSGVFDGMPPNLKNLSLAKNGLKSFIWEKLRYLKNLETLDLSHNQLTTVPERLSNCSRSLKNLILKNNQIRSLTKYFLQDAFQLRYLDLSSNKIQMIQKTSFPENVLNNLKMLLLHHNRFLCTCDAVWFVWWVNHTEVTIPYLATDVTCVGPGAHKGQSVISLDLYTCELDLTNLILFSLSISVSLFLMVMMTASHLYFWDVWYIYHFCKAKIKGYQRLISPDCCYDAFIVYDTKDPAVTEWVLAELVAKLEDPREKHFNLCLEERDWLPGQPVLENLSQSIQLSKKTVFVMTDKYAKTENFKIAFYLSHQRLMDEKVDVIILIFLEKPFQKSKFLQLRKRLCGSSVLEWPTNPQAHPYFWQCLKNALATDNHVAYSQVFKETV
Put plainly: In vivo target occupancy at TLR7 in cynomolgus monkey assessed as fold increase in OAS3 mRNA expression in nasal scrape at 3 ng/kg administered intranasally incubated for 24 hrs by TaqMan analysis (reference value: 0.9). In kind it is functional.

Data set [4] in a line: Ocular toxicity in monkey at 10 ug/ml. Set-up: species or system Macaca mulatta. To be noted: rhesus monkey, in vivo; dose 10 µg/ml.
Data set [5] can be described thus: Solubility of the compound at pH-7. Type of data set: physicochemical.
Data set [6] deals with T3, Toll-like receptor 7 (Macaca fascicularis, UniProt B3Y652).
T3 sequence (B3Y652 whole entry): T2 sequence (whole entry)
Description: Agonist activity at TLR7 in cynomolgus monkey whole blood assessed as induction of TNFalpha production. Type of data set: tissue-based.

The target in data set [7] is T1, Toll-like receptor 7. Description: Agonist activity at TLR7 in human whole blood assessed as induction of IL-1beta production after 20 hrs by electrochemiluminescence assay. Type of data set: tissue-based.
The target in data set [8] is T2, Toll-like receptor 7 (Macaca fascicularis). Put plainly: In vivo target occupancy at TLR7 in cynomolgus monkey assessed as fold increase in CCL8 mRNA expression in nasal scrape at 30 ng/kg administered intranasally incubated for 24 hrs by TaqMan analysis (reference value: 1). Type of data set: functional. Background: Real-time PCR tracks product formation cycle by cycle.

In a further data set the test system is Rattus norvegicus. Description: Induction of IFNalpha production in rat at 0.4 mg/kg measured after 2 hrs. Type of data set: functional, organism-based.
The target in data set [9] is T2, Toll-like receptor 7 (Macaca fascicularis). Put plainly: In vivo target occupancy at TLR7 in cynomolgus monkey assessed as fold increase in OAS3 mRNA expression in nasal scrape at 30 ng/kg administered intranasally incubated for 24 hrs by TaqMan analysis (reference value: 0.9). Type of data set: functional.
For data set [10], the system named is Cynomolgus monkey. Description: Induction of plasma cytokines in cynomolgus monkey. Type of data set: functional, organism-based. To be noted: Macaca fascicularis.
For data set [11], the system named is PBMC. Description: Immunomodulatory activity in human PBMC assessed as reduction in timothy grass induced IL-5 level after 6 days. To be noted: dose 0.01-10000 nM, time 6.0 day. In kind it is functional, cell-based.
The nature of data set [12]: Systemic clearance in rat. In kind it is ADME. The note with it: in vivo.
Data set [13] is described as follows: Tmax in cynomolgus monkey after intranasal administration. Type of data set: ADME, Macaca fascicularis. The note with it: in vivo, inhaled or intranasal.
Data set [14] concerns Cynomolgus monkey. Description: Increase in IP-10 level in cynomolgus monkey serum at 30 ng/kg, administered intranasally after 6 hrs. The note with it: Macaca fascicularis. In kind it is functional, organism-based.
The subject of data set [15] is PBMC. Put plainly: Immunomodulatory activity in human PBMC assessed as reduction in house dust mite induced IL-5 level after 6 days. The note with it: dose 0.01-10000 nM, time 6.0 day. In kind it is functional, cell-based.
The target in data set [16] is T1, Toll-like receptor 7. Put plainly: Agonist activity at TLR7 in human whole blood assessed as induction of IL-10 production after 20 hrs by electrochemiluminescence assay. Type of data set: tissue-based.

The source of these data is ChEMBL document CHEMBL5252515, “Discovery of 6-Amino-2-{[(1S)-1-methylbutyl]oxy}-9-[5-(1-piperidinyl)pentyl]-7,9-dihydro-8H-purin-8-one (GSK2245035), a Highly Potent and Selective Intranasal Toll-Like Receptor 7 Agonist for the Treatment of Asthma” (J Med Chem, 2016).

In brackets after ≈: the same amount, converted by molar mass. Activity calls are given as the source filed them. No cut-off for these calls is given here. Bounds are passed on as bounds.

Broadly, the EC50 is the concentration that produces a half-maximal response. What is called solubility is the concentration that dissolves in the medium under given conditions. One may read the clearance as the rate of elimination divided by the concentration. As usually defined, the Tmax is the time from dosing to the highest level. As for `CCC[C@H](C)Oc1nc(N)c2[nH]c(=O)n(CCCCCN3CCCCC3)c2n1` [GSK-2245035], the EC50 on Toll-like receptor 7 [1] was 2 µM; on Toll-like receptor 7 [6] it was 15.8 µM; at Toll-like receptor 7 [7] it was 5.01 µM; on Toll-like receptor 7 [16], 0.251 µM. In addition, the Activity entry was “Dose-Dependent Effect” in the data set with PBMC [2], “Non-Toxic” in data set [4], “Dose-Dependent Effect” in the data set with PBMC [11] and “Dose-Dependent Effect” in the data set on PBMC [15]. The fold change (FC) in data set [3] is 86.3; in data set [8], 19300; in data set [9], 101. The same molecule had a solubility in data set [5] of 11 mg/mL (≈ 28.2 mM). Besides, the result with Rattus norvegicus and with Cynomolgus monkey [14] was Active. Moreover, in the data set on Cynomolgus monkey [10], the outcome was inactive. The molecule also yielded a clearance in data set [12] of 96 mL/min/kg. In data set [13], the Tmax was at most 5 min.
